Reference: paper PMC12118597 (Science Advances, 2025)
Read-outs that look alike come from different tables or passages of the source.

Molecular target: SARS-CoV-2 NSP3 macrodomain (Mac1) (Severe acute respiratory syndrome coronavirus 2, UniProt P0DTD1)
Assay: biochemical
Type: binding
[1] = single dose concentration 200 μM (TS-FrankenROCS series)
[2] = compound at 200 μM, mean of three to four technical replicates, read-out: % competition at 200 μM (preliminary HTRF screen)
[3] = SARS CoV-2 macrodomain HTRF assay, single dose concentration 200 μM
[4] = Single dose, concentration 200 μM
[5] = SARS CoV-2 macrodomain HTRF assay, single dose concentration 200 μM, read-out: Average % competition
[6] = read-out: IC50 (confirmatory HTRF dose-response screen)
[7] = SARS CoV-2 macrodomain HTRF assay
[8] = SARS CoV-2 macrodomain HTRF assay, dose-response, read-out: IC50

## CC1c2ccsc2CCN1C(=O)Cc1csc(-c2ccccc2)n1 (stereo not drawn) [AVI-287]
  Average % competition: 0%

## O=C1COc2cc(C(=O)N3CC(C(=O)O)c4ccccc43)ccc2N1 (stereo not drawn) [AVI-289]
dose-response, read-out: IC50
  IC50: > 1000 µM

## Cc1nc2cc(NC(=O)C3CC(=O)Nc4ccccc43)ccc2o1 (stereo not drawn) [AVI-292]
  Average % competition: 0%

## Cc1ncc(CN(C)C(=O)c2cccc(N)c2F)s1 [AVI-293]
dose-response, read-out: IC50
  IC50: > 1000 µM
[1]
  Average % competition: 14%

## CC1CN(C(=O)c2ccccc2S(C)(=O)=O)c2cccnc2O1 (stereo not drawn) [AVI-294]
  Average % competition: 13%

## CCCC1CCCC1C(=O)N[C@H]1CCc2nc(N)sc2C1 (stereo partly drawn) [AVI-298]
  Average % competition: <10%

## CC(=O)Nc1ccc(S(=O)(=O)CCCN2C(=O)CC(C)(C(C)C)C2=O)cc1 (stereo not drawn) [AVI-299]
  Average % competition: 19%

## O=C(NCCCN1C(=O)NC2(CCCC2)C1=O)c1ccc(=O)[nH]c1 [AVI-300]
  Average % competition: 8%

## Cc1ccc2c(c1)C(=O)N(CCC(=O)Nc1cnc3c(c1)c(C)nn3C)C2=O [AVI-301]
  Average % competition: 16%

## Cc1nnc2n1CCN(C(=O)CN1C(=O)CCOc3ccccc31)C2 [AVI-302]
  Average % competition: 0%

## CC(OC(=O)c1ccc2nc(N)sc2c1)C(=O)N1CCCCCC1 (stereo not drawn) [AVI-304]
  Average % competition: 0%

## CNC(=O)c1ccc(NC(=O)C2CC(=O)Nc3ccccc32)cc1 (stereo not drawn) [AVI-305]
  Average % competition: 0%

## Cc1nc(-c2cccc(NC(=O)NCc3cccs3)c2)n[nH]1 [AVI-306]
dose-response, read-out: IC50
  IC50: > 1000 µM

## O=C1CC(C(=O)Nc2nc3c(s2)CCCC3)c2ccccc2N1 (stereo not drawn) [AVI-307]
  Average % competition: 0%

## c1ccn2c(Sc3ncnc4ccsc34)nnc2c1 [AVI-308]
  Average % competition: 0%

## CNS(=O)(=O)c1cc(C(=O)N2CCOc3ccccc32)n(C)c1 [AVI-309]
  Average % competition: 0%

## Cc1ccc(O)c(C(=O)c2cnn3c(N)nnc3c2)c1 [AVI-310]
  Average % competition: 0%

## O=C(O)C1CN(C(=O)c2cccc3[nH]ccc23)c2ccccc21 (stereo not drawn) [AVI-314]
dose-response, read-out: IC50
  IC50: > 1000 µM

## CC(=O)Nc1ccc(NC(=O)CSc2nnnn2C2CCCC2)cc1 [AVI-315]
  Average % competition: 0%

## O=C(c1cc(C2CCCCC2)[nH]n1)N1CCCC(O)(C(F)(F)F)CC1 (stereo not drawn) [AVI-318]
  Average % competition: 13%

## O=C(O)C1CN(C(=O)c2ccc3n[nH]nc3c2)c2ccccc21 (stereo not drawn) [AVI-319]
  Average % competition: 25%

## Cc1ccc(C)c(CN2C(=O)NC(C)(Cc3ccc4c(c3)OCO4)C2=O)c1 (stereo not drawn) [AVI-320]
  Average % competition: 18%

## Cc1noc(NCc2cc3ccccc3[nH]c2=O)n1 [AVI-322]
  Average % competition: 0%

## O=C(O)C1CN(C(=O)c2ccc3c(c2)OCCO3)CCO1 (stereo not drawn) [AVI-323]
  Average % competition: 7%

## Nc1ncnc(N2CCC(C(F)(F)F)C3(CCC3)C2)c1Cl (stereo not drawn) [AVI-324]
  Average % competition: <10%

## CCOc1ccc(-c2nc(CC(=O)N3CCn4cccc4C3C)cs2)cc1 (stereo not drawn) [AVI-325]
  Average % competition: 0%

## O=C(O)C1CCc2nnc(-c3ccc(F)cc3)n2C1 (stereo not drawn) [AVI-326]
  Average % competition: 15%

## Cc1nn(C)c2sc(C(=O)N3CC(C(=O)O)c4ccccc43)cc12 (stereo not drawn) [AVI-327]
  Average % competition: 0%

## NC(=O)N1CCC[C@H]1C(=O)Nc1ccc2ncnn2c1 [AVI-330]
  Average % competition: 14%

## Nc1ncnc2sc3c(c12)CCN(C(=O)[C@H]1CC=CCC1)C3 [AVI-331]
  Average % competition: <10%

## N#Cc1cnc(CSc2nc(-c3ccccc3)co2)nc1N [AVI-332]
  Average % competition: <10%

## O=C(O)c1ccc2c(c1)C(NC(=O)C1CCn3ncnc3C1)CCC2 (stereo not drawn) [AVI-333]
  Average % competition: 21%

## CC1CCCC1OC(=O)Cn1cnc2c1c(=O)n(C)c(=O)n2C (stereo not drawn) [AVI-335]
  Average % competition: <10%

## Cc1ccc(N2CCN(c3ncnc(-c4ccccc4)n3)CC2=O)cc1 [AVI-336]
  Average % competition: <10%

## CC(C(=O)NCc1c(C(=O)O)[nH]c2ccccc12)n1cncn1 (stereo not drawn) [AVI-337]
  Average % competition: 14%

## O=C1CCc2cc(C(=O)N3CC(C(=O)O)CCC34CCCC4)c(F)cc2N1 (stereo not drawn) [AVI-338]
  Ligand efficiency (binding enery per heavy atom): 0.16
dose-response
  Ki: 740 µM
dose-response, read-out: IC50
  IC50: 800 µM

## Nc1cc(N2CCC3CCCCC3C2)ncn1 (stereo not drawn) [AVI-339]
dose-response, read-out: IC50
  IC50: > 1000 µM
[1]
  Average % competition: <10%

## CC1(c2ccc(F)cc2)CN(C(=O)c2cnc(N)nc2C(F)(F)F)C1 [AVI-340]
  Average % competition: 20%

## Cn1ccc2cc(NC(=O)C3CC(=O)NC4CCCCC43)ccc21 (stereo not drawn) [AVI-342]
  Average % competition: <10%

## Cc1nc(N)ncc1C(=O)NCC(O)Cc1ccc(Cl)cc1 (stereo not drawn) [AVI-343]
  Average % competition: <10%

## COc1ccc(-c2nccc(N3CCC(c4ccsc4)CC3)n2)cc1 [AVI-344]
  Average % competition: <10%

## CNc1ccc(NS(=O)(=O)c2cc3cccc(C)c3s2)cn1 [AVI-345]
[2]
  inhibition at 200 µM: 18%
[1]
  Average % competition: 18%

## O=c1[nH]c2ccccc2cc1CNc1nc(C2CC2)ns1 [AVI-346]
dose-response, read-out: IC50
  IC50: > 1000 µM
[1]
  Average % competition: <10%

## Cc1ccc(CC(=O)N2CCSC23CC(C(=O)O)C3)cc1O (stereo not drawn) [AVI-347]
  Average % competition: <10%

## CC(NC(=O)c1ccc(N)nc1Cl)C(O)c1cccc(F)c1 (stereo not drawn) [AVI-349]
  Average % competition: 15%

## O[C@@]1(Cn2ccnn2)CCCN(c2ncnc3[nH]ccc23)C1 [AVI-608]
[3]
  Average % competition: 8%
[2]
  inhibition at 200 µM: < 10%

## O[C@@H]1CNCC[C@H]1Nc1ncnc2[nH]ccc12 [AVI-613]
[4]
  Average % competition: <10%
[2]
  inhibition at 200 µM: < 10%

## CN(C)C[C@@]1(O)CCCN(c2ncnc3[nH]ccc23)C1 [AVI-614]
[3]
  Average % competition: <10%
[2]
  inhibition at 200 µM: < 10%

## O[C@H]1CNCC[C@@H]1Nc1ncnc2[nH]ccc12 [AVI-615]
[5]
  inhibition at 200 µM: < 10%
[2]
  inhibition at 200 µM: < 10%

## O=C(O)C(F)(F)F.OC1c2ccccc2CC1Nc1ncnc2[nH]ccc12 (stereo not drawn) [AVI-3634]
[4]
  Average % competition: <10%
[2]
  inhibition at 200 µM: < 10%

## O=C(O)C(F)(F)F.OCC(Nc1ncnc2[nH]ccc12)C1CCCO1 (stereo not drawn) [AVI-3645]
[4]
  Average % competition: 54%
[2]
  inhibition at 200 µM: 54%

## O=C(O)C(F)(F)F.OC[C@@H](CCc1ccccc1)Nc1ncnc2[nH]ccc12 [AVI-3654]
[4]
  Average % competition: 27%
[2]
  inhibition at 200 µM: 27%

## CC(C)CCC(CO)Nc1ncnc2[nH]ccc12.O=C(O)C(F)(F)F (stereo not drawn) [AVI-3668]
[4]
  Average % competition: 38%
[2]
  inhibition at 200 µM: 38%

## O=C(O)C(F)(F)F.O=[N+]([O-])c1ccc(C(O)C(CO)Nc2ncnc3[nH]ccc23)cc1 (stereo not drawn) [AVI-3672]
[4]
  Average % competition: 43%
[2]
  inhibition at 200 µM: 43%

## O=C(O)C(F)(F)F.OCC(CC1CCOCC1)Nc1ncnc2[nH]ccc12 (stereo not drawn) [AVI-3676]
[4]
  Average % competition: <10%
[2]
  inhibition at 200 µM: < 10%

## O=C(O)C(F)(F)F.OCC(Nc1ncnc2[nH]ccc12)C(O)C1CCCCC1 (stereo not drawn) [AVI-3687]
[4]
  Average % competition: 33%
[2]
  inhibition at 200 µM: 33%

## O=C(O)C(F)(F)F.OCC(Cc1cccc(F)c1)Nc1ncnc2[nH]ccc12 (stereo not drawn) [AVI-3706]
[4]
  Average % competition: 77%
[2]
  inhibition at 200 µM: 77%

## O=C(O)C(F)(F)F.OCC1C2C=CC(C2)N1c1ncnc2[nH]ccc12 (stereo not drawn) [AVI-3712]
[5]
  inhibition at 200 µM: 55%
[2]
  inhibition at 200 µM: 55%

## CC(C)(C)C(O)CC(CO)Nc1ncnc2[nH]ccc12.O=C(O)C(F)(F)F (stereo not drawn) [AVI-3714]
[4]
  Average % competition: <10%
[2]
  inhibition at 200 µM: < 10%

## OC1CC(Cn2ccnc2)CC1Nc1ncnc2[nH]ccc12 (stereo not drawn) [AVI-3725]
[4]
  Average % competition: 29%
[2]
  inhibition at 200 µM: 29%

## Cc1c[nH]c2ncnc(NCC3(O)CCCCC3)c12 [AVI-3761, 1-(((5-methyl-7H-pyrrolo[2,3-d]pyrimidin-4-yl)amino)methyl)cyclohexan-1-ol]
  Ki: 12 µM
[6]
  IC50: 13 µM

## CC(O)C1CCCN1c1ncnc2[nH]ccc12 (stereo not drawn) [AVI-4062]
HTRF
  fold decrease in affinity relative to AVI-607: ~ 10 fold
[7]
  Ki: 51 µM
  Ligand efficiency (binding enery per heavy atom): 0.35
[6]
  IC50: 55 µM

## C[C@H]1CC[C@H](CO)N(c2ncnc3[nH]ccc23)C1 [AVI-4063]
[7]
  Ki: 52 µM
  Ligand efficiency (binding enery per heavy atom): 0.33
[8]
  IC50: 56 µM

## OCC1CCC2(CCOCC2)CN1c1ncnc2[nH]ccc12 (stereo not drawn) [AVI-4065]
[7]
  Ki: 400 µM
  Ligand efficiency (binding enery per heavy atom): 0.21
[8]
  IC50: 430 µM

## Cc1c[nH]c2ncnc(NCC3(O)CCOCC3)c12 [AVI-4194, 4-(((5-methyl-7H-pyrrolo[2,3-d]pyrimidin-4-yl)amino)methyl)tetrahydro-2H-pyran-4-ol]
[7]
  Ki: 150 µM
  Ligand efficiency (binding enery per heavy atom): 0.28
[8]
  IC50: 160 µM

## Cc1c[nH]c2ncnc(NCC3(O)CCSCC3)c12 [AVI-4195, 4-(((5-methyl-7H-pyrrolo[2,3-d]pyrimidin-4-yl)amino)methyl)tetrahydro-2H-thiopyran-4-ol]
[7]
  Ki: 48 µM
  Ligand efficiency (binding enery per heavy atom): 0.31
[8]
  IC50: 52 µM

## CC1CCCC(O)(CNc2ncnc3[nH]ccc23)C1 (stereo not drawn) [AVI-4307]
[7]
  Ki: 37 µM
  Ligand efficiency (binding enery per heavy atom): 0.32
[8]
  IC50: 40 µM

## OC1(CNc2ncnc3[nH]ccc23)CCC(F)(F)CC1 [AVI-4308]
[7]
  Ki: 130 µM
  Ligand efficiency (binding enery per heavy atom): 0.27
[8]
  IC50: 140 µM

## OC1(CNc2ncnc3[nH]ccc23)CCCC(C(F)(F)F)C1 (stereo not drawn) [AVI-4309]
[7]
  Ki: 140 µM
  Ligand efficiency (binding enery per heavy atom): 0.24
[8]
  IC50: 150 µM

## CC1(C)CCC(O)(CNc2ncnc3[nH]ccc23)CC1 [AVI-4310]
[7]
  Ki: 71 µM
  Ligand efficiency (binding enery per heavy atom): 0.29
[8]
  IC50: 76 µM

## OC1(CNc2ncnc3[nH]ccc23)CCCOC1 (stereo not drawn) [AVI-4311]
[7]
  Ki: 160 µM
  Ligand efficiency (binding enery per heavy atom): 0.29
[8]
  IC50: 170 µM

## OC1(CNc2ncnc3[nH]ccc23)COC2CC1C2 (stereo not drawn) [AVI-4313]
[7]
  Ki: 120 µM
  Ligand efficiency (binding enery per heavy atom): 0.29
[8]
  IC50: 130 µM

## OC1(CNc2ncnc3[nH]ccc23)CCOCC1 [AVI-4314]
[7]
  Ki: 210 µM
  Ligand efficiency (binding enery per heavy atom): 0.28
[8]
  IC50: 230 µM
